Reference: patent publication US10440955B2, “Methods comprising a biocidal polyamine” (Curza Global, LLC, priority 2013, dated 2019)
Counter-ions that a name gives are not always drawn.

Legend:
[1] = test system: MRSA biofilms; assay: MBEC, MBEC Inoculation Tray (Innovotech), to 10^2 CFU/peg in 24 hours; assay type: cell-based, Staphylococcus aureus
From the text: (§1) To determine the MBEC of each polyamine compound, the MBEC Inoculation Tray by Innovotech, formerly known as the Calgary biofilm device, was used. Within this device, biofilms grow on the surface of polystyrene pegs, 96 of which are attached to a lid. These pegs are inserted into a flat bottom 96-well plate. In this instance, the MBEC of a molecule was defined as the concentration of compound (in μg/mL) required to reduce 10^5 or 10^6 CFU/peg (biofilm levels varied by isolate) to 10^2 CFU/peg in a 24-hour period.
(§2) Following the manufacturer's guidelines, biofilms were grown on the surface of each peg by first making a 0.5 McFarland of each isolate. The 0.5 McFarland was diluted 1:100 in CAMHB. Into each well of a flat bottom 96-well plate, 150 μL of broth were pipetted. The plate was shaken at 100 rpm for 24 hours (P. aeruginosa and A. baumannii) or 48 hours (MRSA). The pegs were then placed into a separate flat bottom 96-well plate for 10 seconds with 200 μL of phosphate buffered saline (PBS) in each well to remove nonadherent cells. The lid was then placed into a 96-well plate that contained varying concentrations of antimicrobial with 200 μL per well. The plate was incubated for 24 hours at 37° C. after which time 100 μL of broth were plated on TSA. TSA plates were incubated 24 hours at 37° C. and the number of CFU counted to calculate the CFU/peg. In this instance, the MBEC was defined as the concentration of antimicrobial required to reduce 10^5 or 10^6 CFU/peg to 10^2 CFU/peg in a 24 hour period.
(§3) MBEC data were collected using the MBEC Inoculation Tray by Innovotech. The MBEC was defined in these preliminary results as the concentration of antimicrobial required to reduce 10^5 or 10^6 CFU/peg to 10^2 CFU/peg in a 24-hour period.

[2] = test system: A. baumannii biofilms; assay: as above; assay type: cell-based, Acinetobacter baumannii
From the text: as §1, §2
To determine the MBEC, the MBEC Inoculation Tray by Innovotech, formerly known as the Calgary biofilm device, is used. Within this device, biofilms grow on the surface of polystyrene pegs, 96 of which are attached to a lid. These pegs are inserted into a flat bottom 96-well plate. In this instance, the MBEC of a molecule is defined as the concentration of compound required to reduce approximately 10^6 CFU/peg to approximately 10^2 CFU/peg in a 24-hour period.
Following the manufacturer's guidelines, biofilms are grown on the surface of each peg by first making a 0.5 McFarland of A. baumannii. The 0.5 McFarland is diluted 1:100 in CAMHB broth. Into each well of a flat bottom 96-well plate, 150 μL of broth is pipetted. The plate is shaken at 100 rpm for 24 hours. The pegs are placed into a separate flat bottom 96-well plate for 10 seconds with 200 μL of phosphate buffered saline (PBS) in each well to remove nonadherent cells. The lid is placed into a 96-well plate that contains varying concentrations of antimicrobial with 200 μL of broth per well. The plate is incubated for 24 hours at 37° C. after which time 100 μL of broth is plated on TSA. TSA plates is incubated 24 hours at 37° C. and the number of CFU counted to calculate the CFU/peg.
as §3

[3] = test system: MRSA biofilms; assay: EBEC, high number biofilms on PEEK membranes, 10^9 to 10^2 CFU/PEEK membrane in 24 hours; assay type: cell-based, Staphylococcus aureus
Experimental: In addition to determining the MIC and the MBEC of polyamine compounds against planktonic bacteria and low number biofilms, our group wanted to determine the efficacy of polyamine compounds against high number biofilms. To do so, biofilms were grown on the surface of polyetheretherketone (PEEK) membranes using a membrane biofilm reactor. This reactor is similar to the CDC biofilm reactor, but rather than growing biofilms on coupon surfaces, the reactor was modified to hold PEEK membranes. In short, to grow biofilms within this system, 500 mL of brain heart infusion (BHI) broth were inoculated with 1 mL of a 0.5 McFarland. The reactor was placed on a hot plate set at 34° C. and the bacteria were grown under batch conditions for 24 hours. Following this protocol, biofilms typically grow to 10^9 CFU/PEEK membrane. […] A solution of 10% BHI was then flowed through the reactor at a rate of 6.94 mL/min for an additional 24 hours. PEEK membranes were then removed and placed into 2 mL of CAMHB that contained a desired concentration of polyamine compound or antibiotic. The EBEC was defined as the concentration of antimicrobial required to reduce a biofilm from approximately 10^9 CFU/PEEK membrane to approximately 10^2 CFU/PEEK membrane in a 24-hour period.
In addition to determining the MIC and the MBEC of compounds against planktonic bacteria and low number biofilms, the efficacy of the compounds of the invention against high number biofilms is determined. To do so, biofilms are grown on the surface of PEEK membranes using a membrane biofilm reactor (Williams, D. L., Haymond, B. S. & Bloebaum, R. D. Use of delrin plastic in a modified CDC biofilm reactor. Res J Microbiol 6, 425-429 (2011); Williams, D. L., Woodbury, K. L., Haymond, B. S., Parker, A. E. & Bloebaum, R. D. A modified CDC biofilm reactor to produce mature biofilms on the surface of PEEK membranes for an in vivo animal model application. Curr Microbiol 62, 1657-1663 (2011); Williams, D. L. et al., In Vivo Efficacy of a Silicone—Cationic Steroid Antimicrobial Coating to Prevent Implant-Related Infection. Biomaterials 33, 8641-8656 (2012); Williams, D. L. et al., Experimental model of biofilm implant-related osteomyelitis to test combination biomaterials using biofilms as initial inocula. J Biomed Mat Res A 100, 1888-1900 (2012)). This reactor is similar to the CDC biofilm reactor, but rather than growing biofilms on coupon surfaces, the reactor was modified to hold PEEK membranes. In short, to grow biofilms within this system, 500 mL of brain heart infusion (BHI) broth is inoculated with 1 mL of a 0.5 McFarland. The reactor is placed on a hot plate set at 34° C. and the bacteria grown under batch conditions for 24 hours. A solution of 10% BHI will then be flowed through the reactor at a rate of 6.94 mL/min for an additional 24 hours. Following this protocol, biofilms typically grow to 10^9 CFU/PEEK membrane. PEEK membranes is removed and placed into 2 mL of CAMHB that contain a desired concentration of the test compound. The EBEC is defined as the concentration of antimicrobial required to reduce a biofilm from approximately 10^9 CFU/PEEK membrane to approximately 10^2 CFU/PEEK membrane in a 24-hour period.
EBEC data were collected to determine the efficacy of CZ-52, CZ-58 and traditional antibiotics against high number biofilms containing approximately 10^9 CFU grown on the surface of a polyetheretherketone (PEEK) membrane.

## NCCCNCCCNCc1ccccc1 [CZ-7, benzylnorspermidine]
[1]; Table 4
  MBEC μg/mL (μM) MRSA: >500 µg/mL
[1]; Table 4, value in parentheses
  MBEC μg/mL (μM) MRSA: (>2,259) μM
[2]; Table 4
  MBEC μg/mL (μM) A. baumannii: >500 µg/mL
[2]; Table 4, value in parentheses
  MBEC μg/mL (μM) A. baumannii: (>2,259) μM
[3]; Table 4
  EBEC μg/mL (μM) MRSA: >5,000 μg/mL
[3]; Table 4, value in parentheses
  EBEC μg/mL (μM) MRSA: (>22,590) μM

## NCCCNCCCNCc1cccc(CNCCCNCCCN)c1 [CZ-25, N^1,N^1′-(1,3-phenylenebis(methylene))bis(N3-(3-ammoniopropyl)propane-1,3-diaminium) chloride]
[1]; Table 4
  MBEC μg/mL (μM) MRSA: 25 µg/mL
[1]; Table 4, value in parentheses
  MBEC μg/mL (μM) MRSA: (69) μM
[2]; Table 4
  MBEC μg/mL (μM) A. baumannii: 450 µg/mL
[3]; Table 4
  EBEC μg/mL (μM) MRSA: >5,000 μg/mL

## NCCCNCCCNCc1cc(CNCCCNCCCN)cc(CNCCCNCCCN)c1 [CZ-52, N^1,N^1′,N^1″-(benzene-1,3,5-triyltris(methylene))tris(N^3-(3-aminopropyl)propane-1,3-diamine), hydrochloride salt]
[1]; Table 4
  MBEC μg/mL (μM) MRSA: 20 µg/mL
[1]; Table 4, value in parentheses
  MBEC μg/mL (μM) MRSA: (40) μM
[2]; Table 4
  MBEC μg/mL (μM) A. baumannii: >500 µg/mL
[3]; Table 4
  EBEC μg/mL (μM) MRSA: 250 µg/mL
[3]; Table 4, value in parentheses
  EBEC μg/mL (μM) MRSA: (500) μM

## NCCCNCCCNCc1cc(CNCCCNCCCN)cc(-c2ccccc2)c1 [CZ-58, N^1,N^1′-([1,1′-biphenyl]-3,5-diylbis(methylene))bis(N^3-(3-ammoniopropyl)propane-1,3-diaminium) chloride]
[1]; Table 4
  MBEC μg/mL (μM) MRSA: 30 µg/mL
[1]; Table 4, value in parentheses
  MBEC μg/mL (μM) MRSA: (68) μM
[2]; Table 4
  MBEC μg/mL (μM) A. baumannii: >50 µg/mL
[2]; Table 4, value in parentheses
  MBEC μg/mL (μM) A. baumannii: (>113) μM
[3]; Table 4
  EBEC μg/mL (μM) MRSA: 1,500 μg/mL

## CN[C@H](CC(C)C)C(=O)N[C@H]1C(=O)N[C@@H](CC(N)=O)C(=O)N[C@H]2C(=O)N[C@H]3C(=O)N[C@H](C(=O)N[C@H](C(=O)O)c4cc(O)cc(O)c4-c4cc3ccc4O)[C@H](O)c3ccc(c(Cl)c3)Oc3cc2cc(c3O[C@@H]2O[C@H](CO)[C@@H](O)[C@H](O)[C@H]2O[C@H]2C[C@](C)(N)[C@H](O)[C@H](C)O2)Oc2ccc(cc2Cl)[C@H]1O [vancomycin, reference compound]
[1]; Table 4
  MBEC μg/mL (μM) MRSA: >500 µg/mL
[1]; Table 4, value in parentheses
  MBEC μg/mL (μM) MRSA: (>345) μM
[3]; Table 4
  EBEC μg/mL (μM) MRSA: >>25,000 μg/mL
[3]; at 25,000 μg/mL, 24-hour period
  reduction of biofilms of MRSA: < 1 log10 unit

## Polymyxin B sulfate [reference compound]
[2]; Table 4
  MBEC μg/mL (μM) A. baumannii: 50 µg/mL
[2]; Table 4, value in parentheses
  MBEC μg/mL (μM) A. baumannii: (36) μM
